Measured values from patent publication US12122780B2, “Pyrimidinyl group-containing tricyclic compound serving as c-Met inhibitor” (JIANGSU AOSAIKANG PHARMACEUTICAL CO., LTD., priority 2019, dated 2024).
Structures can show the parent of a compound that is named as a salt.

Assays:
[1] = target: c-Met enzyme (Homo sapiens (Human), UniProt P08581); assay: c-Met enzyme activity inhibition (Promega c-Met Kinase Enzyme System, ADP-Glo); type: biochemical; conditions: 10 μM ATP, 60 min, 30° C.
Experimental: To detect the inhibitory effect of the compounds on c-Met enzyme activity.
The c-Met Kinase Enzyme System was purchased from Promega. Envision multi-label analyzer (PerkinElmer).
The kinase buffer in the kit was used to dilute the enzyme, substrate, ATP and inhibitor.
The compound to be tested was diluted 5-fold to the eighth concentration with a discharge gun, i.e., from 50 μM to […], with a final DMSO concentration of 5%, and double duplicate wells experiment was set. 1 μL of each concentration gradient of the inhibitor, 2 μL of c-Met enzyme (4 ng), 2 μL of a mixture of the substrate and ATP (10 μM ATP, 0.2 μg/μL poly E4Y1) were added to the microplate, and the final concentration gradient of the compound of 10 μM was diluted to 0.13 nM. The reaction system was placed at 30° C. and the reaction was carried out for 60 minutes. When the reaction was completed, 5 μL of ADP-Glo reagent was added to each well and the reaction was carried out at 30° C. for another 40 minutes, when the reaction was completed, 10 μL of kinase detection reagent was added to each well, then the reaction was carried out at 30° C. for still another 30 minutes, chemiluminescence was read by the PerkinElmer Envision multi-label analyzer with an integration time of 0.5 seconds.
Using the equation (Sample-Min)/(Max-Min)*100% to convert the original data to the inhibition rate, the IC50 value can be obtained by curve fitting with four parameters (obtained by log(inhibitor) vs. response in GraphPad Prism—Variable slope mode).

[2] = test system: Hs746T cells; assay: Hs746T cell proliferation experiment (CellTiter-Glo); type: cell-based; conditions: Homo sapiens, 96 h, 4 days
Experimental: DMEM medium was purchased from Gibco, and fetal bovine serum was purchased from Hyclone. Hs746T cell line was purchased from ATCC. Envision multi-label analyzer (PerkinElmer).
Hs746T cells were seeded in a 384-well plate, 50 μL of cell suspension per well, which contained 1500 Hs746T cells. The cell plate was placed in a carbon dioxide incubator for overnight culture.
The compounds to be tested were 3-fold diluted into 9 concentrations with Tecan, double-duplicate well experiment was set, and the final compound concentrations added to the 384-well cell plate were 1000 nM to 0.15 nM. The cell plate was cultured in a carbon dioxide incubator for 4 days.
After 4 days, 25 μL of Promega CellTiter-Glo reagent was added to each well of this cell plate, and incubated at room temperature for 10 minutes to stabilize the luminescence signal. Readings were taken using a PerkinElmer Envision multi-label analyzer.
The action curves of the compounds were automatically fitted using Xlfit software and the values of IC50 were calculated, High control was the values of DMSO-treated wells and Low control was the values of cell-free medium wells.

[3] = test system: EBC-1 cells; assay: EBC-1 cell proliferation experiment (CellTiter-Glo); type: cell-based, human; conditions: Homo sapiens, EBC-1, 72 h, 3 days
Experimental: MEM medium, fetal bovine serum, penicillin/streptomycin antibiotics were purchased from Wisent. EBC-1 cell line was purchased from Nanjing COBIO Bioscience Co., LTD. Envision multi-label analyzer (PerkinElmer).
EBC-1 cells were seeded in a white 96-well plate, […] cell suspension per well, which contained 3000 EBC-1 cells. The cell plate was placed in a carbon dioxide incubator for overnight culture.
The compound to be tested was diluted 5-fold to the eighth concentration with a discharge gun, i.e., from 2 mM to […], and double duplicate wells experiment was set. 78 μL of the medium was added to the middle plate, then 2 μL per well of gradient diluted compound was transferred to the corresponding position on the middle plate, then mixed well and 20 μL per well was transferred to the cell plate. The cell plate was cultured in a carbon dioxide incubator for 3 days. Another cell plate was prepared and the signal values were read on the day of dosing as […] to be used in the data analysis. 25 μL of Promega CellTiter-Glo was added to each well of this cell plate, and incubated at room temperature for 10 minutes to stabilize the luminescence signal. Readings were taken using a PerkinElmer Envision multi-label analyzer.
25 μL of Promega CellTiter-Glo reagent was added to each well of this cell plate, and incubated at room temperature for 10 minutes to stabilize the luminescence signal. Readings were taken using a PerkinElmer Envision multi-label analyzer.
Using the equation (Sample-Min)/(Max-Min)*100% to convert the original data to the inhibition rate, the IC50 value can be obtained by curve fitting with four parameters (obtained by “log(inhibitor) vs. response in GraphPad Prism—Variable slope mode).

[4] = test system: human lung cancer EBC-1 xenograft tumor; assay: In vivo drug efficacy, human lung cancer EBC-1 xenograft tumor in nude mice; set-up: species or system BALB/c nude mice; conditions: for Tumor volume: n = 6
Experimental: BALB/c nude mice, female, 6-8 weeks old, weighing about 18-20 grams, animals were raised in SPF-class animal rooms in IVC (independent air supply system, constant temperature and humidity) cages (3 per cage). All cages, bedding and water were disinfected before use. All animals had free access to standard certified commercial laboratory diets. A total of 36 mice purchased from Shanghai Lingchang Biotechnology Co., Ltd. were used for research. Each animal was inoculated with 0.1 mL (5×10^6 cells) of EBC-1 cells on the right back, when the average tumor volume reached 243 mm^3, the animals were randomly grouped and the administration was started. The test compound was orally administered daily, the dose of hydrochloride of compound 24 was 10 mg/kg, the two doses of hydrochloride of compound 25 were 10 mg/kg and 20 mg/kg, respectively, and the dose of hydrochloride of compound 29 was 10 mg/kg. The tumor diameter was measured with vernier calipers twice a week. The calculation formula of tumor volume was: V=0.5a×b^2, a and b represented the long diameter and short diameter of the tumor, respectively. The anti-tumor efficacy of the compound was evaluated by TGI (%) or the relative tumor proliferation rate T/C (%). Relative tumor proliferation rate T/C (%)=TRTV/CRTV×100% (TRTV: average RTV in the treatment group; CRTV: average RTV in the negative control group). The relative tumor volume (RTV) was calculated according to the results of tumor measurement, the calculation formula was RTV=Vt/V0, wherein V0 was the tumor volume measured at the time of the grouping administration (i.e. D0), Vt was the tumor volume at a certain measurement, and TRTV and CRTV were taken on the same day. TGI (%) reflected the tumor growth inhibition rate. TGI (%)=[(1−(average tumor volume of a certain treatment group after administration-average tumor volume of the treatment group at the beginning of administration))/(average tumor volume of the solvent control group after the administration-average tumor volume of the solvent control group at the beginning of the administration)]×100%. Statistical analysis was performed based on RTV data at the end of the experiment, and SPSS software was used for analysis.

c-Met enzyme, sequence (P08581 956-1390): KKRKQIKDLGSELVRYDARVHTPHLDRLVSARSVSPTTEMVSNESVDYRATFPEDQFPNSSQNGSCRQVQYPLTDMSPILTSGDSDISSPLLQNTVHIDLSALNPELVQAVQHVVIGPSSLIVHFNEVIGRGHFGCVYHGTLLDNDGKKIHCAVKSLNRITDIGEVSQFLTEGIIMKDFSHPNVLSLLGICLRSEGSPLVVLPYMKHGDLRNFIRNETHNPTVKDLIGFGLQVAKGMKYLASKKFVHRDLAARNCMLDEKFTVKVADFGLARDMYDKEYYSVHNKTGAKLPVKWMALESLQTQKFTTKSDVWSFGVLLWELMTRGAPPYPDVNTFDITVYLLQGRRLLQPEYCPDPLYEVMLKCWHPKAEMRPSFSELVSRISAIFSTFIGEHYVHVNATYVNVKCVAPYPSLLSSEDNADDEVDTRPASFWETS

IC50 [1]	Compound	IC50 [2]	IC50 [3]	other results
4.26 nM	CC(C)N1CCC(O)(COc2cnc(-c3cccc(Cn4c(=O)ccn5c6cc(C#N)ccc6nc45)c3)nc2)CC1 [Hydrochloride of compound 37]	2.5 nM	4.91 nM	
7.38 nM	COC1(COc2cnc(-c3cccc(Cn4c(=O)ccn5c6cc(C#N)ccc6nc45)c3)nc2)CCN(C)CC1 [Hydrochloride of compound 36]	2.7 nM	6.13 nM	
2.82 nM	CN1CCC(O)(COc2cnc(-c3cccc(Cn4c(=O)ccn5c6cc(C#N)ccc6nc45)c3)nc2)CC1 [Hydrochloride of compound 34]	2.6 nM	4.91 nM	

Second part, the molecule before the results:

Compound	IC50 [1]	IC50 [2]	IC50 [3]	other results
CCN1CCC(COc2cnc(-c3cccc(Cn4c(=O)ccn5c6cc(C#N)ccc6nc45)c3)nc2)CC1 [Hydrochloride of compound 24]	2.03 nM		4.26 nM	Tumor volume ([4]; 10 mg/kg oral daily (stopped after 15 days), day 18, mean ± standard error): 123 ± 31 mm^3; Tumor volume ([4]; 10 mg/kg oral daily (stopped after 15 days), day 21, mean ± standard error): 164 ± 45 mm^3; Tumor volume ([4]; 10 mg/kg oral daily (stopped after 15 days), day 25, mean ± standard error): 257 ± 72 mm^3; Tumor volume ([4]; 10 mg/kg oral daily (stopped after 15 days), day 25, mean ± standard error, listed as hydrochloride of compound 24): 257 mm^3; Tumor volume ([4]; 10 mg/kg oral daily (stopped after 15 days), day 27, mean ± standard error): 366 ± 92 mm^3; TGI (tumor growth inhibition rate) ([4]; 10 mg/kg oral daily, 25th day): 99.3%; TRTV/CRTV (relative tumor proliferation rate T/C) ([4]; 10 mg/kg oral daily, 25th day): 13.7%; Tumor volume ([4]; 10 mg/kg oral daily, day 0, mean ± standard error): 244 ± 23 mm^3; Tumor volume ([4]; 10 mg/kg oral daily, day 4, mean ± standard error): 270 ± 22 mm^3; Tumor volume ([4]; 10 mg/kg oral daily, day 7, mean ± standard error): 224 ± 16 mm^3; Tumor volume ([4]; 10 mg/kg oral daily, day 11, mean ± standard error): 142 ± 24 mm^3; Tumor volume ([4]; 10 mg/kg oral daily, day 14, mean ± standard error): 120 ± 25 mm^3
COC1(COc2cnc(-c3cccc(Cn4c(=O)ccn5c6cc(C#N)ccc6nc45)c3)nc2)CCN(CCO)CC1 [Hydrochloride of compound 41]	6.63 nM	2.3 nM	5.08 nM	
COC1(COc2cnc(-c3cccc(Cn4c(=O)ccn5c6cc(C#N)ccc6nc45)c3)nc2)CCN(C(C)C)CC1 [Hydrochloride of compound 38]	7.65 nM	3.2 nM	8.51 nM	
N#Cc1ccc2nc3n(Cc4cccc(-c5ncc(OCC6CCN(CCO)CC6)cn5)c4)c(=O)ccn3c2c1 [Hydrochloride of compound 30]	7.48 nM	2 nM	7.09 nM	
